Test results as given in US6537670B1, “Bis(alkyleneoxybenzophenone) ultraviolet light absorbers” (Cytec Technology Corp., priority 2000, dated 2003).

Legend:
[1] = Volatility of UV absorbers: Thermogravimetric Analysis (TGA) T-10% values; type: physicochemical; details: for T-10% (TGA, temperature required for 10% of the material to volatilize): Thermogravimetric Analysis
Source text: One approach that has been taken to reduce the loss of absorbers from polymeric substrates has been to increase their molecular weight, either by using an absorber with attached high molecular weight groups, or by adding a group which will bind two or more absorbing nuclei in the same molecule, thus increasing molecular weight. U.S. Pat. No. 4,278,589 provides an example of the former approach, and describes benzotriazoles with large groups attached at the 3- and 5-positions. Of the latter approach, benzophenones, benzotriazoles and other molecules have been dimerized to reduce volatility. U.S. Pat. Nos. 5,108,835 and 4,948,666 describe articles with capstock layers stabilized by 2-hydroxyphenylbenzotriazoles which are bridged by various groups. One structure encompassed by the description is a 2-hydroxyphenylbenzotriazole bridged by a methylene group in the 3-position. These materials have relatively low volatility, as measured by the high temperature required for 10% of the materials to volatilize during Thermogravimetric Analysis. This temperature, known as the TGA T-10% value, is approximately 365° C. for the methylenebis{(5-tert-octyl-2-hydroxyphenyl)benzotriazole} known commercially as LA-31, Mixxim BB-100 or Tinuvin 360 (supplied by Asahi Denka, Fairmount Chemical and Ciba Specialty Chemicals, respectively), versus a TGA T-10% value of 245° C. for the non-dimerized (5-tert-octyl-2-hydroxyphenyl)benzotriazole known commercially as CYASORB® UV-5411. Also described have been 2,4-dihydroxybenzophenones which are dimerized by attachment through the 4-oxygen by an ether bond to two carbons of an aliphatic group. Compounds of this type have been described in U.S. Pat. Nos. 3,580,927 and 3,666,713 and CZ Appl. 135,115, JP Sho 47-48888, JP Sho 44-26456 and GB 1, 296,240. Capstock articles stabilized by some of these compounds, and a method for preparing the same are described in U.S. Pat. Nos. 5,445,872 and 5,306,456. Descriptions of benzotriazoles and benzophenones bridged by attachment of other groups may be found in U.S. Pat. Nos. 5,589,529 and 4,859,726 (for benzotriazoles) and JP Sho 57-12643 (for benzophenones). Many of the compounds described above, while solving the problem of volatility, have other limitations, including low solubility and high initial color when processed into the plastic substrate.
Volatility of UV Absorbers
Thermogravimetric Analysis (TGA) T-10% Values

[2] = Weathering resistance of polycarbonate plaques, 12-Month Florida Data; details: for % Weathering Resistance: 0.35% additive in Lexan 121 PC, 12-Month Florida Data, [1-YI(additive)YI of Blank] × 100
Protocol: The performance of the additives was evaluated in comparison to the control (no stabilizer) by compounding into polycarbonate and studying the properties of the compounded plaques. Polycarbonate plaques were prepared by: (1) dry blending the additives at 0.35 weight % with GE Lexan 121-112 polycarbonate (2) extruding the blend in a Haake torque rheometer base using a 0.75 inch 25:1 single screw extruder −4 zone, single pass, at 50-65 RPM speed, with zone 1, zone 2, zone 3, and zone 4 temperatures at 265, 265, 270 and 275° C., respectively, (3) pulling through a water bath, (4) drying, (5) pelletizing, (6) redrying at 120° C. for 4-48 hours in a forced air oven, (7) injection molding in an Arburg ‘Allrounder’ hydraulic injection molder (2×2.5 0.100″ plaques). Temperatures used were as follows: nozzle, 275° C., nozzle side, 280° C., middle, 275° C., feed, 266° C., mold, 95° C. The plaques were irradiated in a Xenon Arc Weatherometer as described by ASTM G-26 Standard using Test Method B with alternate exposure to light and darkness and an intermittent exposure to water spray maintaining an atmosphere temperature of 63±3° C. and a relative humidity of 30±5% (Miami, Fla. conditions). Color (YI) was determined with a Macbeth Color Eye […] under Lab conditions with illuminate C, 2° observer, specular component excluded, and UV component included. Hydrolytic testing was performed by heating plaques with water at 120° C. for 6 hours in an All American Electric Pressure Sterilizer, Model No. 25×, measuring YI before and after treatment.
% Weathering Resistance of Plaques (0.35% Additive in Lexan® 121 PC)

[3] = Capstock weathering: Delta YI after xenon-arc weatherometer exposure; details: 7% in Capstock PC-Lexan 105
Protocol: The performance of the compounds was evaluated in comparison to the control (no stabilizer) in a polycarbonate thin film laminated to an unstabilized polycarbonate plaque. The films were prepared by (1) dry blending the additives at 7 wt. % with Lexan 105 virgin flake and 0.1% Mark 2112 phosphite, (2) extruding the blend in a Haake torque rheometer base equipped with a 0.75 inch 25:1 single mixing screw extruder −4 zone, single pass at 55-65 rpm speed, with zone 1, zone 2, zone 3, and zone 4 temperatures at 246, 265, 295, and 304° C., respectively, (3) pulling through a water bath, (4) drying, (5) pelletizing, (6) redrying at 120° C. for 4-48 hours in a forced air oven, and (7) compression molding from compounded pellets into 2 mil films at 300° C. using a 30 second dwell hold without pressure, and a 30-second dwell hold with 35 kpsi pressure. […] The laminated sample plaques were exposed in the xenon-arc weatherometer as determined by ASTM G-26 Standard using Test Method B with alternate exposure to light and darkness and an intermittent exposure to water spray maintaining an atmosphere temperature of 63±3° C. and a relative humidity of 30±5% (Miami, Fla. conditions). Color (YI) was determined with a Macbeth Color Eye Colorimeter under Lab conditions with illuminate C, 2° observer, specular component excluded, and UV component included. […]

[4] = Solubility of compounds in organic solvents; details: 25° C.

| Compound | TGA T-10% value [1] | T-10% (TGA, temperature required for 10% of the material to volatilize) [1] | Stability imparted (in words) [3] | Stability imparted to the polycarbonate system (in words) ([2]; 0.35% in Lexan 121 PC) | Solubility in 2-Butanone [4] | Solubility in Toluene [4] | Solubility characteristics (in words) ([4]; organic solvents) | % Weathering Resistance [2] | Volatility (in words) ([1]; TGA, compared with non-dimerized counterpart) |
| --- | --- | --- | --- | --- | --- | --- | --- | --- | --- |
| CC(C)(C)CC(C)(C)c1ccc(O)c(-n2nc3ccccc3n2)c1 [Compound A, 2-(2′-hydroxy-5′-(1,1,3,3-tetramethylbutyl)phenyl)benzotriazole] | 245 °C | 245 °C | – | – | – | – | – | – | – |
| O=C(c1ccccc1)c1ccc(OCCO)cc1O [Compound B, 2-hydroxy-4-(hydroxyethoxy)benzophenone] | – | 257 °C | – | – | – | – | – | – | – |
| CC(C)(c1ccccc1)c1cc(-n2nc3ccccc3n2)c(O)c(C(C)(C)c2ccccc2)c1 [Compound C, 2-(3′,5′-bis(α,α-dimethylbenzyl)-2′hydroxyphenyl)benzotriazole] | – | 312 °C | – | – | – | – | – | 71% | – |
| O=C(OCCOc1ccc(C(=O)c2ccccc2)c(O)c1)OCCOc1ccc(C(=O)c2ccccc2)c(O)c1 [Compound D, {2-(3′-hydroxy-4′-benzoylphenoxy)ethyl}carbonate] | – | 350 °C | excellent stability | excellent stability | 2.69 g/100 g solvent | 1.26 g/100 g solvent | excellent solubility characteristics | 71% | lower volatility than its non-dimerized counterpart |

Now from value to molecule, other results behind:

| TGA T-10% value [1] | T-10% (TGA, temperature required for 10% of the material to volatilize) [1] | Stability imparted (in words) [3] | Stability imparted to the polycarbonate system (in words) ([2]; 0.35% in Lexan 121 PC) | Solubility in 2-Butanone [4] | Solubility in Toluene [4] | Solubility characteristics (in words) ([4]; organic solvents) | Compound | % Weathering Resistance [2] | Volatility (in words) ([1]; TGA, compared with non-dimerized counterpart) |
| --- | --- | --- | --- | --- | --- | --- | --- | --- | --- |
| – | 357 °C | – | – | 0.37 g/100 g solvent | 0.52 g/100 g solvent | – | O=C(c1ccccc1)c1ccc(OCCCCCCOc2ccc(C(=O)c3ccccc3)c(O)c2)cc1O [Compound E, 1,6-bis(3′hydroxy-4′-benzoylphenoxy)hexane] | 69% | – |
| approximately 365 °C | – | – | – | – | – | – | CC(C)(C)CC(C)(C)c1cc(Cc2cc(C(C)(C)CC(C)(C)C)cc(-n3nc4ccccc4n3)c2O)c(O)c(-n2nc3ccccc3n2)c1 [Compound F] | 59% | – |
